Key:
mouse ES cells = test: Induction of differentiation of mouse ES cells into neural cells (βII tubulin-positive cells); assay type: cell-based; conditions: SB-431542 0.1 to 10 μM or CKI-7 1 to 100 μM, single agent
Procedure: Mouse ES cells were cultured in the presence of SB-431542 (0.1 to 10 μM) and/or CKI-7 (1 to 100 μM) under SFEB conditions. Five days after the start of the culture, the cells were recovered and re-suspended in a fresh differentiation medium, and, to produce re-aggregated pellets, the suspension was centrifuged at 800 g for 10 minutes. After cultivation at 37° C. for 1 hour, three to five re-aggregated pellets per cm^2 were replated onto poly-D-lysine/laminin/fibronectin-coated culture slides, along with differentiation medium. After cultivation for 5 days, the cells were fixed and stained with anti-βII tubulin antibody, and the ratio of βII tubulin-positive cells was determined under microscopy. The other experimental conditions were the same as those for Example 1.

[1] = test system: FACS-purified ES-derived Rx-GFP+ retinal progenitor cells; test: Differentiation of FACS-purified ES-derived retinal progenitor cells into Crx+ photoreceptor precursors (immunostaining); assay type: cell-based, mouse
Procedure: Methods for mouse ES cell maintenance and differentiation in SFEB conditions were previously reported (reference documents A7, 20). For the sake of the SFEB/DLFA, Dkk1 (R & D Systems, 100 ng/ml, during days 0-5), LeftyA (R & D Systems, 500 ng/ml, during days 0-5), 5% FCS (JRH Biosciences, during days 3-5), and Activin-A (R & D Systems, 10 ng/ml, during days 4-5) were added to a differentiation medium (G-MEM, 5% KSR, 0.1 mM non-essential amino acids, 1 mM pyruvic acid, and 0.1 mM 2-mercaptoethanol) (reference document A6).
(§1) For FACS (see below), until day 9, cell aggregates were incubated in a differentiation medium under suspension culture conditions. After FACS, 1−2×10^4 sorted cells were re-suspended in a differentiation medium containing 10% FCS, and to produce re-aggregated pellets, the suspension was centrifuged at 800 g for 10 minutes. After cultivation at 37° C. for 1 hour, three to five re-aggregated pellets per cm^2 were replated on a poly-D-lysine/laminin/fibronectin-coated culture slides with a differentiation medium supplemented with 10% FCS. On day 10, the culture medium was changed to a differentiation medium not containing FCS, and containing or not containing the gamma secretase inhibitor N—[N-(3,5-difluorophenacetyl)-L-alanyl]-S-phenylglycine t-butyl ester (DAPT, 10 μM, Calbiochem).
On day 9, SFEB/DLFA-treated ES cell aggregates were dissociated with trypsin (0.25%, Invitrogen) and DNaseI (10 μg/ml, Sigma) into single cells. After neutralization, the cells were re-suspended in HBSS containing 0.1% BSA and 5 μg/ml propidium iodide (PI, Sigma), and passed through a cell strainer (BD) as described previously (reference documents A7, 21). The cells were counted and sorted using FACS Aria (BD Biosciences), and data were analyzed using the FACS Diva software (BD Biosciences). Dead cells were excluded by gating forward and side scatter and PI staining. Cells with Rx-GFP fluorescence (band-pass filter: FITC, 530 nm) were sorted and further cultured. […]
(§2) The immunoreactivity of each antibody was confirmed by immunostaining an appropriate retinal tissue as a positive control under the same conditions. Total cell counts were determined by counting nuclei stained by TOTO-3 or DAPI (Molecular Probes). Positive cells were counted in optical slice images prepared by confocal (Leica) or ApoTome (Zeiss) microscopy.
For statistical analyses, at least 2500 cells were examined in each experiment, which was performed at least 3 times. […] The statistical significance of differences was determined by one-way analysis of variance (ANOVA) followed by Tukey's test for the experiments in FIG. 1f, by one-way ANOVA followed by Dunnett's multiple comparison test for the experiment in FIG. 3b, by two-way ANOVA followed by Bonferroni's test for the experiment in FIG. 1j-l. […]

[2] = test system: purified ES-derived Rx+ cells; test: Differentiation of ES-derived photoreceptor precursors into opsin+ cone and rhodopsin+ rod photoreceptors; assay type: cell-based, mouse; conditions: for rod differentiation, factor added individually: after FACS purification and DAPT, acidic FGF 50 ng/ml, basic FGF 10 ng/ml, taurine 1 mM, shh 3 nM, RA 500 nM, from day 16, day 28
Procedure: as §1
For photoreceptor differentiation, on day 16, the medium was replaced with a retinal culture medium containing the factors shown in FIG. 3a (66% E-MEM-HEPES (Sigma M7278), 33% HBSS (Gibco 24020-117), 1% FCS supplemented with N2, 5.75 mg/ml glucose, 200 μM L-glutamine, 100 U/ml penicillin, and 100 μg/ml streptomycin (Gibco)). aFGF (R & D Systems) and bFGF (R & D Systems) were added during differentiation for 16-24 days; taurine (Sigma), shh (R & D Systems), and RA (Sigma) were added during differentiation days 16-28. The medium was replaced with a fresh supply every 2 days.
(§3) Immunohistological staining was performed as described previously (reference documents A20, 24). The primary antibodies used in this study were as follows: • Anti-Crx (rat/polyclonal/1:200, reference document A6), • Anti-Ki67 (mouse/monoclonal/1:200/BD), • Anti-BrdU (mouse/monoclonal/1:50/BD), • Anti-active caspase-3 (rabbit/monoclonal/1:500/BD), • Anti-red/green opsin (rabbit/polyclonal/1:1000/Chemicon), • Anti-blue opsin (rabbit/polyclonal/1:500/Chemicon), • Anti-rhodopsin (RetP1; mouse/monoclonal/1:1000/SIGMA) and • Anti-Recoverin (rabbit/polyclonal/1:5000/Chemicon).
as §2
(§4) For statistical analyses, at least 2500 cells were examined in each experiment, which was performed at least 3 times. All statistical analyses were performed using GraphPad InStat version 3.0 (GraphPad Software Inc., San Diego, Calif., USA). The statistical significance of differences was determined by one-way analysis of variance (ANOVA) followed by Tukey's test for the experiments in FIG. 1f, by one-way ANOVA followed by Dunnett's multiple comparison test for the experiment in FIG. 3b, by two-way ANOVA followed by Bonferroni's test for the experiment in FIG. 1j-l. Probability values less than 5% were considered significant.

purified Rx+ cells = test: Ki67 expression, BrdU uptake and active caspase 3 in purified Rx+ cells; assay type: cell-based, mouse
Procedure: as §1
BrdU uptake was examined by culturing the cells in a medium containing 5 μg/ml BrdU for 24 hours before fixation.
as §3, §2, §4

Retinae of E17.5 mouse = test: Tissue culture of embryonic retina treated with DAPT (Crx staining, RT-PCR); assay type: cell-based; conditions: 10 μM DAPT
Procedure: FIG. 4 The gamma secretase inhibitor DAPT promotes the differentiation of photoreceptor precursors. Retinae of E17.5 mouse were treated, or not treated, with 10 μM DAPT under tissue culture conditions for 2-4 days. (a, b) Two days later, the retinae were stained for Crx (green) and TOTO-3 (blue). Many Crx^+ (green) photoreceptor precursors were found in the DAPT-treated retina (a), whereas several Crx^+ were found in non-treated retina (b). GC, ganglion cell layer; NBL, neuroblastic layer; ONL, outer nuclear layer. (c) RT-PCR analysis of retina treated or not treated with DAPT for 2 or 4 days. It was confirmed that the expression of Hes1 and Hes5 had been decreased in the DAPT-treated retina.
RT-PCR analysis was performed as reported previously (reference documents A7, 20). The primers used are as follows: […]

monkey ES cells = test: Differentiation of monkey ES cells into retinal cells (SFEB culture, immunocytochemistry); assay type: cell-based, cynomolgus monkey; conditions: day 40, Dkk-1 100 ng/ml, Lefty-A 500 ng/ml
Procedure: ES colonies were partially dissociated with 0.25% trypsin (in a PBS containing 1 mM CaCl2 and 20% KSR) into clumps (5 to 10 cells per clump). It is noticeable that when this clumps of ES cells were too large (for example, exceeding 50 cells per aggregate), the neural induction efficiency declined. When ES cells dispersed to single cells were used, the cell viability declined, and retinal cells could not efficiently be induced. ES clumps were incubated on a gelatin-coated dish for 30 minutes, whereby STO feeders were removed. ES clumps were plated on a dish of bacterial grade using an ES differentiation medium at a density of 6.7×10^3 aggregate per ml. The composition of the differentiation medium was as follows. [G-MEM (GIBCO), 10% KSR, Lot.1139720 and 1219101, 0.1 mM non-essential amino acids, 1 mM pyruvate and 0.1 mM 2-mercaptoethanol]. […]
Values are expressed as means±S.E.M. For statistic analysis, 100 to 200 colonies in each experiment were examined, each experiment being performed at least 3 times. […] For the experiments in FIG. 7b, statistical significance of difference was determined by one-way analysis of variance (ANOVA) followed by Dunnet's test. The data obtained from FIG. 8a, d, e, h and i were evaluated by unpaired t-test. […]

[3] = DAPT from day 10, retinal differentiation medium from day 16, day 28

For NCCNS(=O)(=O)c1ccc(Cl)c2ccncc12 [CKI-7, N-(2-aminoethyl)-5-chloro-isoquinoline-8-sulfonamide], the “number of βII tubulin-positive cells” value (mouse ES cells) was “increased”.

In the case of C[C@H](NC(=O)Cc1cc(F)cc(F)c1)C(=O)N[C@H](C(=O)OC(C)(C)C)c1ccccc1 [DAPT, N—[N-(3,5-difluorophenacetyl)-L-alanyl]-S-phenylglycine t-butyl ester], the “frequency of Crx+ cell aggregates” value ([1]; 10 μM DAPT, most effective on days 10 to 20) is reported as “significantly raised”, the “Crx expression in Rx-GFP− cells” value ([1]; Rx-GFP− cells treated with DAPT from day 10, day 20) is reported as “did not express Crx” and the “promotion of differentiation into Crx+ photoreceptor precursors in non-FACS-sorted cells” value ([1]; non-FACS-sorted ES cell-derived neural retinal progenitor cells treated with DAPT) is reported as “no evident promotion”. For the same molecule, the “percentage of Crx+ cells” value ([1]; sorted Rx-GFP+ cells, 10 μM DAPT from day 10, determined on day 20) was 22.4±2.9%, the “ES-derived cells expressing blue opsin” value [2, 3] was 10.7±1.6% and the “ES-derived cells expressing red/green opsin” value [2, 3] was 11.5±2.0%. For the same molecule, the cells expressing rhodopsin ([2]; DAPT only, no further factors, day 28) was 5.5±0.5%, the “proportion of cells positive for active caspase” value (purified Rx+ cells; day 11) was 0.17±0.04% and the “proportion of cells positive for active caspase” value (purified Rx+ cells; day 12) was 0.13±0.04%. For the same molecule, the “proportion of cells positive for active caspase” value (purified Rx+ cells; day 14) was 0.10±0.07%, the “Ki67+ cell population versus non-treated cells” value (purified Rx+ cells; day 14 and thereafter, DAPT from day 10) was “smaller” and the “proportion of cells positive for active caspase” value (purified Rx+ cells; day 16) was 0.10±0.01%. The “proportion of cells positive for active caspase” value (purified Rx+ cells; day 18) was 0.13±0.02%, the “proportion of cells positive for active caspase” value (purified Rx+ cells; day 20) was 0.10±0.15% and the “proportion of cells positive for active caspase, DAPT-treated versus non-treated” value (purified Rx+ cells; days 11-20, Ki67+ population) was “no significant difference”. The “BrdU+ cells versus non-treated control” value (purified Rx+ cells; days 14-20, BrdU uptake 24 hours) was “fewer”, the “ratio of Crx+ photoreceptor precursors in embryonic retinal tissue” value (Retinae of E17.5 mouse; tissue culture) was “considerably increased” and the “expression of the differentiation inhibitors Hes1 and Hes5” value (Retinae of E17.5 mouse; tissue culture 2 or 4 days, RT-PCR) was “suppressed”.

With NC(=O)c1ccc(-c2nc(-c3ccc4c(c3)OCO4)c(-c3ccccn3)[nH]2)cc1 [SB-431542] the “number of βII tubulin-positive cells” value (mouse ES cells) was “increased”.

In the case of NCCS(=O)(=O)O [taurine], the “rod differentiation, factor added individually” value (“rod differentiation” for short) [2] is reported as “promoted rod differentiation”.

In the case of “acidic FGF: acidic FGF (R & D Systems), soluble factor”, the “rod differentiation” value [2] is reported as “promoted rod differentiation”.

“basic FGF: basic FGF (R & D Systems), soluble factor” was tested, and the “rod differentiation” value [2] was “promoted rod differentiation”.

B1: Dkk-1: Recombinant Dkk-1 protein, Wnt antagonist (protein, UniProt O94907 32-266, looked up)
Dickkopf-related protein 1: TLNSVLNSNAIKNLPPPLGGAAGHPGSAVSAAPGILYPGGNKYQTIDNYQPYPCAEDEECGTDEYCASPTRGGDAGVQICLACRKRRKRCMRHAMCCPGNYCKNGICVSSDQNHFRGEIEETITESFGNDHSTLDGYSRRTTLSSKMYHTKGQEGSVCLRSSDCASGLCCARHFWSKICKPVLKEGQVCTKHRRKGSHGLEIFQRCYCGEGLSCRIQKDHHQASNSSRLHTCQRH
With B1 the “ratio of Mitf+ colonies” value (monkey ES cells) was 35.3±4.4%.

B2: Lefty-A: Lefty-A protein, nodal antagonist (protein, UniProt O00292 77-366, looked up)
Left-right determination …: RFSQSFREVAGRFLASEASTHLLVFGMEQRLPPNSELVQAVLRLFQEPVPKAALHRHGRLSPRSAQARVTVEWLRVRDDGSNRTSLIDSRLVSVHESGWKAFDVTEAVNFWQQLSRPRQPLLLQVSVQREHLGPLASGAHKLVRFASQGAPAGLGEPQLELHTLDLRDYGAQGDCDPEAPMTEGTRCCRQEMYIDLQGMKWAKNWVLEPPGFLAYECVGTCQQPPEALAFNWPFLGPRQCIASETASLPMIVSIKEGGRTRPQVVSLPNMRVQKCSCASDGALVPRRLQP
B2 was tested, and the “ratio of Mitf+ colonies” value (monkey ES cells) was 50.8±5.0%.
